{
  "source": "patent US10973779B2",
  "about": "“Astaxanthin compound composition and the method thereof” (Bioptik Technology, Inc., priority 2019, dated 2021)",
  "type_in_all_cases": "in vivo, Syrian hamsters",
  "key": {"[1]": {"tested_on": "hamsters fed with high cholesterol diet", "test": "Animal experiments on lowering blood lipids: total cholesterol and triglyceride in the liver", "protocol": "(§1) Male Syrian hamsters aged 6-7 weeks were tested for evaluating the effects of lowering blood lipid profile. Animals were divided into 6 groups, 8 hamsters in each group with a total of 48 hamsters. The experiment was conducted for 8 weeks, and the dosing method was oral gavage, and the animals of experimental groups were fed with the astaxanthin compound composition prepared according to the present invention. The dosage used was calculated according to the dosage for adult human. […] Based on this dosage, the 1×, 2× and 3× dosages were respectively defined for the following testing. The animals were fed with 1× (the converted dosage for hamster is 30.83 mg/kg), 2× (the converted dosage for hamster is 61.67 mg/kg) and 3× (the converted dosage for hamster is 92.50 mg/kg) dosages. At the same time, the clinically used anti-hyperlipidemic drug, Probucol, was used as comparison for evaluating the anti-hyperlipidemic effect. [table] Biostatistical analysis method: the results of the experiment were statistically tested based on one-way ANOVA by using SPSS 10.1 system. Then, the difference among the groups was tested by Duncan's Multiple Range Test. When the p value is smaller than 0.05 (P<0.05), it indicates statistically significant difference. When the concentration of total cholesterol and triglyceride in the liver is too high, the risk of developing fatty liver may increase. According to the present Experimental Example, the concentration changes in total cholesterol and triglyceride in the liver and feces of the tested animals are shown in Table 3."}, "[2]": {"tested_on": "hamsters fed with high cholesterol diet", "test": "Animal experiments on lowering blood lipids: total cholesterol and triglyceride in the feces", "details": "Positive control (P), 124 mg/kg oral gavage, 8 weeks", "protocol": "as §1, with “When the concentration of total cholesterol and triglyceride in the liver is too high, the risk of developing fatty liver may increase. According to the present Experimental Example, the concentration changes in total cholesterol and triglyceride in the liver and feces of the tested animals are shown in Table 3.” left out"}, "[3]": {"tested_on": "hamsters fed with high cholesterol diet", "test": "Animal experiments on lowering blood lipids: serum lipid profile", "protocol": "as §1, with “difference. The experimental animals were sacrificed to have blood drawn and” for “difference. When”, “the results” for “the concentration”, “cholesterol (TC)” for “cholesterol”, “triglyceride (TG) were” for “triglyceride in the liver is too high, the risk of developing fatty liver may increase. According to the present Experimental Example, the concentration changes in total cholesterol and triglyceride in the liver and feces of the tested animals are”, “Table 2. […] Please continue to refer to Table 2 for the effects of astaxanthin compound composition on high-density lipoprotein cholesterol (HDL-C), low-density lipoprotein cholesterol (LDL-C) in hamsters fed with high cholesterol diet.” for “Table 3.”"}, "[4]": {"details": "Positive control (P), 124 mg/kg oral gavage, 8 weeks, high cholesterol diet"}},
  "data": [
    {"smiles": "CC(C)(Sc1cc(C(C)(C)C)c(O)c(C(C)(C)C)c1)Sc1cc(C(C)(C)C)c(O)c(C(C)(C)C)c1", "note": "[Probucol]", "values": [
      {"measurement": "liver TC", "setting": "[1]; [4]", "result": "3.80 ± 0.26", "unit": "mg/g"},
      {"measurement": "liver TG", "setting": "[1]; [4]", "result": "13.7 ± 1.5", "unit": "mg/g"},
      {"measurement": "total cholesterol concentration in the liver compared with vehicle control group", "setting": "[1]; positive control (P) group, 124 mg/kg, p<0.05", "result": "significantly lower"},
      {"measurement": "feces TC", "setting": "[2]", "result": "6.7 ± 0.9", "unit": "mg/g"},
      {"measurement": "feces TG", "setting": "[2]", "result": "15.8 ± 2.8", "unit": "mg/g"},
      {"measurement": "HDL-C in serum", "setting": "[3]; [4]", "result": "83 ± 11", "unit": "mg/dL"},
      {"measurement": "HDL-C/TC in serum", "setting": "[3]; [4]", "result": "0.707 ± 0.066"},
      {"measurement": "LDL-C in serum", "setting": "[3]; [4]", "result": "31.8 ± 3.9", "unit": "mg/dL"},
      {"measurement": "LDL-C/HDL-C in serum", "setting": "[3]; [4]", "result": "0.392 ± 0.110"},
      {"measurement": "LDL-C/TC in serum", "setting": "[3]; [4]", "result": "0.203 ± 0.032"},
      {"measurement": "TC (total cholesterol) in serum", "setting": "[3]; [4]", "result": "157 ± 11", "unit": "mg/dL"},
      {"measurement": "TG (triglyceride) in serum", "setting": "[3]; [4]", "result": "152 ± 14", "unit": "mg/dL"},
      {"measurement": "total cholesterol in blood compared with vehicle control group", "setting": "[3]; positive control group, 124 mg/kg, p<0.05", "result": "significantly lower"}
    ]}
  ]
}
